Reference: DBAASP
Values after ≈ are worked out from the molar mass of the structure shown.

Key:
Assay in all cases: ≥ marks a high value that may be exact or a test limit, other limits are often not marked, values filed in µg/mL are converted to µM
Saccharomyces cerevisiae = tested on: Saccharomyces cerevisiae
Neisseria meningitidis = tested on: Neisseria meningitidis
[1] = tested on: Enterobacter cloacae ATCC 11775
Listeria monocytogenes = tested on: Listeria monocytogenes
Clostridium perfringens = tested on: Clostridium perfringens
Klebsiella pneumoniae = tested on: Klebsiella pneumoniae
Streptococcus pneumoniae = tested on: Streptococcus pneumoniae
[2] = tested on: Salmonella typhimurium CIP 6062
[3] = tested on: Salmonella enterica subsp. enterica serovar Enteritidis
Vibrio cholerae = tested on: Vibrio cholerae
[4] = tested on: Escherichia coli 363 ATCC 11775
[5] = tested on: Staphylococcus haemolyticus
Candida albicans = tested on: Candida albicans
Pseudomonas aeruginosa = tested on: Pseudomonas aeruginosa
[6] = tested on: Bacillus megaterium ATCC 9885
[7] = tested on: Staphylococcus aureus ATCC 25923
Salmonella typhimurium = tested on: Salmonella typhimurium
Escherichia coli B = tested on: Escherichia coli B

Question: With `CC[C@H](C)[C@H](NC(=O)[C@H](CC(C)C)NC(=O)[C@H](CO)NC(=O)[C@@H](NC(=O)[C@@H](NC(=O)[C@H](CC(C)C)NC(=O)CN)C(C)C)[C@@H](C)O)C(=O)N[C@@H](CCCCN)C(=O)NCC(=O)N[C@@H](C)C(=O)NCC(=O)N[C@@H](CCCCN)C(=O)N[C@@H](CC(C)C)C(=O)N[C@@H](CC(C)C)C(=O)NCC(=O)NCC(=O)N[C@@H](CC(C)C)C(=O)N[C@@H](Cc1ccccc1)C(=O)NCC(=O)N[C@@H](CO)C(=O)N[C@H](C(=O)N[C@H](C(=O)NCC(N)=O)[C@@H](C)O)C(C)C` [GLVTSLIKGAGKLLGGLFGSVTG] as the compound, how does the MIC (Saccharomyces cerevisiae) read?
Answer: The MIC was 12.5 µM (≈ 26.8 µg/mL).

Question: What about the MIC (Neisseria meningitidis) of the same compound?
Answer: The MIC was 25 µM (≈ 53.6 µg/mL).

Question: And the MIC [1]?
Answer: The MIC was 12.6 µM (≈ 26.9 µg/mL).

Question: What about the MIC (Listeria monocytogenes) of the same compound?
Answer: Its MIC is 12.5 µM (≈ 26.8 µg/mL).

Question: What about the MIC (Clostridium perfringens) of the same compound?
Answer: The MIC was 25 µM (≈ 53.6 µg/mL).

Question: And the MIC (Klebsiella pneumoniae)?
Answer: Its MIC is 3.1 µM (≈ 6.65 µg/mL).

Question: And the MIC (Streptococcus pneumoniae)?
Answer: Its MIC is 3.1 µM (≈ 6.65 µg/mL).

Question: And the MIC [2]?
Answer: Its MIC is 12.6 µM (≈ 26.9 µg/mL).

Question: What about the MIC [3] of the same compound?
Answer: Its MIC is 1.5 µM (≈ 3.22 µg/mL).

Question: What about the MIC (Vibrio cholerae) of the same compound?
Answer: Its MIC is 6.25 µM (≈ 13.4 µg/mL).

Question: What about the MIC [4] of the same compound?
Answer: Its MIC is 6.25 µM (≈ 13.4 µg/mL).

Question: And the MIC [5]?
Answer: The MIC was 6.25 µM (≈ 13.4 µg/mL).

Question: And the MIC (Candida albicans)?
Answer: The MIC was 12.5 µM (≈ 26.8 µg/mL).

Question: And the MIC (Pseudomonas aeruginosa)?
Answer: Its MIC is 1.5 µM (≈ 3.22 µg/mL).

Question: And the MIC [6]?
Answer: Its MIC is 3.15 µM (≈ 6.76 µg/mL).

Question: What about the MIC [7] of the same compound?
Answer: The MIC was 6.25 µM (≈ 13.4 µg/mL).

Question: With `CC(C)C[C@H](NC(=O)[C@H](CC(C)C)NC(=O)[C@H](CCCCN)NC(=O)CNC(=O)[C@H](C)NC(=O)[C@@H](NC(=O)[C@H](CCCCN)NC(=O)[C@H](CC(C)C)NC(=O)[C@H](CC(C)C)NC(=O)[C@H](CC(=O)O)NC(=O)[C@@H](NC(=O)[C@@H](NC(=O)[C@@H](NC(=O)CN)C(C)C)C(C)C)[C@@H](C)O)[C@@H](C)O)C(=O)NCC(=O)N[C@@H](CC(N)=O)C(=O)N[C@@H](CC(C)C)C(=O)N[C@@H](Cc1ccccc1)C(=O)NCC(=O)N[C@@H](CO)C(=O)N[C@@H](CC(C)C)C(=O)N[C@@H](CO)C(=O)NCC(N)=O` [GVVTDLLKTAGKLLGNLFGSLSG] as the compound, how does the MIC (Saccharomyces cerevisiae) read?
Answer: Its MIC is ≥ 100 µM.

Question: What about the MIC (Salmonella typhimurium) of the same compound?
Answer: Its MIC is 6.25 µM (≈ 14.1 µg/mL).

Question: What about the MIC (Neisseria meningitidis) of the same compound?
Answer: Its MIC is ≥ 50 µM.

Question: And the MIC [1]?
Answer: The MIC was 12.5 µM (≈ 28.2 µg/mL).

Question: What about the MIC (Listeria monocytogenes) of the same compound?
Answer: Its MIC is ≥ 50 µM.

Question: And the MIC (Clostridium perfringens)?
Answer: The MIC was ≥ 100 µM.

Question: And the MIC (Klebsiella pneumoniae)?
Answer: The MIC was 6.25 µM (≈ 14.1 µg/mL).

Question: What about the MIC (Streptococcus pneumoniae) of the same compound?
Answer: Its MIC is 12.5 µM (≈ 28.2 µg/mL).

Question: And the MIC (Escherichia coli B)?
Answer: Its MIC is 12.5 µM (≈ 28.2 µg/mL).

Question: What about the MIC [2] of the same compound?
Answer: Its MIC is 25.2 µM (≈ 57.1 µg/mL).

Question: What about the MIC [3] of the same compound?
Answer: The MIC was 3.1 µM (≈ 7.01 µg/mL).

Question: And the MIC (Vibrio cholerae)?
Answer: Its MIC is 25 µM (≈ 56.5 µg/mL).

Question: And the MIC [4]?
Answer: Its MIC is 6.25 µM (≈ 14.1 µg/mL).

Question: What about the MIC [5] of the same compound?
Answer: Its MIC is ≥ 50 µM.

Question: What about the MIC (Candida albicans) of the same compound?
Answer: Its MIC is 50 µM (≈ 113 µg/mL).

Question: What about the MIC (Pseudomonas aeruginosa) of the same compound?
Answer: Its MIC is 3.1 µM (≈ 7.01 µg/mL).

Question: And the MIC [6]?
Answer: The MIC was ≥ 50.2 µM.

Question: What about the MIC [7] of the same compound?
Answer: The MIC was 6.25 µM (≈ 14.1 µg/mL).
